According to the NIST ThermoML archive (doi:10.1021/je4009987):
± gives the expanded uncertainty stated by the source.

Assay: mn = molality of the nth substance listed, in mol/kg
Conditions: 101 kPa, Liquid; for speed of sound: Sing-around technique in a fixed-path interferometer; for mass density: Vibrating tube method

CCOC(=O)CC(C)=O [ethyl 3-oxobutanoate] + O
Conditions | mass density, 288.15 K [kg/m3] | mass density, 293.15 K [kg/m3] | mass density, 298.15 K [kg/m3] | mass density, 303.15 K [kg/m3] | mass density, 308.15 K [kg/m3] | speed of sound, 288.15 K [m/s] | speed of sound, 293.15 K [m/s] | speed of sound, 298.15 K [m/s] | speed of sound, 303.15 K [m/s] | speed of sound, 308.15 K [m/s]
m1 = 0.076 | 1000.05 ± 2 | 999.128 ± 2 | 997.91 ± 2 | 996.474 ± 2 | 994.809 ± 2 | 1472.6 ± 1.3 | 1487.8 ± 1.3 | 1501.3 ± 1.3 | 1513 ± 1.3 | 1523.1 ± 1.3
m1 = 0.1625 | 1001.1 ± 2 | 1000.13 ± 2 | 998.838 ± 2 | 997.358 ± 2 | 995.64 ± 2 | 1479.2 ± 1.3 | 1493.6 ± 1.3 | 1506.4 ± 1.3 | 1517.4 ± 1.3 | 1526.9 ± 1.3
m1 = 0.2495 | 1002.14 ± 2 | 1001.1 ± 2 | 999.76 ± 2 | 998.22 ± 2 | 996.445 ± 2 | 1485.5 ± 1.3 | 1499.2 ± 1.3 | 1511.2 ± 1.3 | 1521.6 ± 1.3 | 1530.4 ± 1.3
m1 = 0.3767 | 1003.62 ± 2 | 1002.48 ± 2 | 1001.05 ± 2 | 999.44 ± 2 | 997.59 ± 2 | 1494.1 ± 1.3 | 1506.7 ± 1.3 | 1517.7 ± 1.3 | 1527.1 ± 1.3 | 1535 ± 1.3
m1 = 0.4725 | 1004.7 ± 2 | 1003.48 ± 2 | 1002 ± 2 | 1000.32 ± 2 | 998.41 ± 2 | 1500 ± 1.3 | 1511.7 ± 1.3 | 1522 ± 1.3 | 1530.8 ± 1.3 | 1538.1 ± 1.3
m1 = 0.5324 | 1005.38 ± 2 | 1004.1 ± 2 | 1002.58 ± 2 | 1000.86 ± 2 | 998.9 ± 2 | 1503.4 ± 1.3 | 1514.7 ± 1.3 | 1524.5 ± 1.3 | 1532.9 ± 1.3 | 1539.8 ± 1.3
m1 = 0.6848 | 1007.03 ± 2 | 1005.6 ± 2 | 1004 ± 2 | 1002.18 ± 2 | 1000.12 ± 2 | 1511.6 ± 1.3 | 1521.7 ± 1.3 | 1530.5 ± 1.3 | 1537.8 ± 1.3 | 1543.7 ± 1.3
m1 = 0.7843 | 1008.1 ± 2 | 1006.56 ± 2 | 1004.9 ± 2 | 1003.01 ± 2 | 1000.9 ± 2 | 1516.3 ± 1.3 | 1525.7 ± 1.3 | 1533.7 ± 1.3 | 1540.4 ± 1.3 | 1545.8 ± 1.3
m1 = 0.9019 | 1009.31 ± 2 | 1007.65 ± 2 | 1005.93 ± 2 | 1003.94 ± 2 | 1001.76 ± 2 | 1521.4 ± 1.3 | 1529.9 ± 1.3 | 1537.2 ± 1.3 | 1543.1 ± 1.3 | 1547.8 ± 1.3

COC(=O)CC(C)=O [methyl 3-oxobutanoate] + O
Conditions | mass density, 288.15 K [kg/m3] | mass density, 293.15 K [kg/m3] | mass density, 298.15 K [kg/m3] | mass density, 303.15 K [kg/m3] | mass density, 308.15 K [kg/m3] | speed of sound, 288.15 K [m/s] | speed of sound, 293.15 K [m/s] | speed of sound, 298.15 K [m/s] | speed of sound, 303.15 K [m/s] | speed of sound, 308.15 K [m/s]
m1 = 0.0809 | 1000.36 ± 2 | 999.43 ± 2 | 998.205 ± 2 | 996.78 ± 2 | 995.12 ± 2 | 1472.5 ± 1.3 | 1487.7 ± 1.3 | 1501.3 ± 1.3 | 1513.1 ± 1.3 | 1523.2 ± 1.3
m1 = 0.1654 | 1001.65 ± 2 | 1000.66 ± 2 | 999.37 ± 2 | 997.9 ± 2 | 996.2 ± 2 | 1477.3 ± 1.3 | 1491.9 ± 1.3 | 1504.8 ± 1.3 | 1516.1 ± 1.3 | 1525.7 ± 1.3
m1 = 0.285 | 1003.44 ± 2 | 1002.36 ± 2 | 1001 ± 2 | 999.454 ± 2 | 997.68 ± 2 | 1484.7 ± 1.3 | 1498.3 ± 1.3 | 1510.5 ± 1.3 | 1521 ± 1.3 | 1529.9 ± 1.3
m1 = 0.386 | 1004.9 ± 2 | 1003.75 ± 2 | 1002.33 ± 2 | 1000.73 ± 2 | 998.91 ± 2 | 1490.1 ± 1.3 | 1503.1 ± 1.3 | 1514.6 ± 1.3 | 1524.4 ± 1.3 | 1532.7 ± 1.3
m1 = 0.4607 | 1005.98 ± 2 | 1004.75 ± 2 | 1003.3 ± 2 | 1001.65 ± 2 | 999.79 ± 2 | 1494.2 ± 1.3 | 1506.6 ± 1.3 | 1517.6 ± 1.3 | 1527 ± 1.3 | 1534.9 ± 1.3
m1 = 0.5604 | 1007.37 ± 2 | 1006.06 ± 2 | 1004.56 ± 2 | 1002.85 ± 2 | 1000.94 ± 2 | 1499.6 ± 1.3 | 1511.4 ± 1.3 | 1521.7 ± 1.3 | 1530.5 ± 1.3 | 1537.9 ± 1.3
m1 = 0.6367 | 1008.4 ± 2 | 1007.01 ± 2 | 1005.53 ± 2 | 1003.74 ± 2 | 1001.79 ± 2 | 1503 ± 1.3 | 1514.2 ± 1.3 | 1524.1 ± 1.3 | 1532.5 ± 1.3 | 1539.5 ± 1.3
m1 = 0.7871 | 1010.4 ± 2 | 1008.9 ± 2 | 1007.35 ± 2 | 1005.47 ± 2 | 1003.45 ± 2 | 1509.8 ± 1.3 | 1520.2 ± 1.3 | 1529.1 ± 1.3 | 1536.7 ± 1.3 | 1542.9 ± 1.3
m1 = 0.8429 | 1011.13 ± 2 | 1009.58 ± 2 | 1008 ± 2 | 1006.11 ± 2 | 1004.04 ± 2 | 1512.2 ± 1.3 | 1522.2 ± 1.3 | 1530.9 ± 1.3 | 1538.1 ± 1.3 | 1544 ± 1.3
